Test results as given in patent publication US20250339812A1, “ELECTROCHEMICAL DIRECT AIR CAPTURE OF CARBON DIOXIDE USING REVERSIBLE REDOX-ACTIVE MATERIAL” (Massachusetts Institute of Technology, priority 2022, published 2025).
Where two headings read alike, the source gives them in different places.

Assays:
[1] = Cyclic voltammetry redox durability of NR (100 cycles); conditions: after 100 cyclic voltammetry cycles
Text: The electrochemistry of the NR aqueous solution was examined by CV at various pH levels between 6 and 12 (FIG. 2A).

[2] = pKa of the NR/NRH equilibrium; format: physicochemical
Text: After basification, a carbon dioxide rich gas stream was introduced to saturate and consequently acidify the solution.

[3] = for peak intensity degradation: nitrogen control
Text: FIG. 5C is a UV-vis spectra for the oxygen sensitivity test.
FIG. 5D is a UV-vis spectra for the control experiment under nitrogen.
FIG. 5E is a UV-vis spectra for the stability test under carbon dioxide.
FIG. 5F is a UV-vis spectra for the stability test under air.
The factors contributing to the 455 nm peak degradation were examined, including decomposition, reoxidation, precipitation, and polymerization.
A third set of UV-vis absorption measurements […], this time on solutions contacted with carbon dioxide, was carried out. […] The final set of UV-vis absorption experiments in FIG. 5F was carried out using solutions bubbled with ambient air.

Compound	decay in the peak current [1]	pKa [2]	decomposition, reoxidation or polymerization products by NMR studies ([3]; NRH2 solutions)	sensitivity to oxygen ([3]; UV-vis absorption spectroscopy, 50 mM NRH2 in 1 M NA and 0.5 M KCl in water)	intensities of the 455 nm peak ([3]; bubbled with ambient air, 30 min and 2 h contact)	degradation of peak intensity at 455 nm ([3]; contacted with carbon dioxide, after a day)	peak intensity at 455 nm ([3]; contacting pure oxygen, 2 h)	peak intensity degradation ([3]; after 24 h) [%]	peak intensity degradation ([3]; after a week) [%]	peak intensity of NRH2 (455 nm) lowered by ([3]; oxygen atmosphere, a day) [%]	peak intensity of NRH2 (455 nm) lowered by ([3]; sealed under oxygen atmosphere after 24 h bubbling, a week) [%]
Cc1cc2nc3ccc(N(C)C)cc3nc2cc1N.Cl [NR, neutral red]	no significant decay	6.8									
Cc1cc2c(cc1N)Nc1cc(N(C)C)ccc1N2 [NRH2, leuco-neutral red]			No major decomposition, reoxidation, or polymerization products	insensitive to oxygen	the same	no significant degradation	maintained	33	53	42	52
